Source: PubChem BioAssay AID328 (DTP/NCI, 2004)
Toxic doses and inconclusive results are not listed. Residues, ends and D or L forms follow the SMILES beside them. *: point of attachment. Trt = c1ccc(C(c2ccccc2)(c2ccccc2)*)cc1; Boc = CC(C)(C)OC(=O)*

System: BDF1 mice, P388 leukemia ip, median survival T/C
Test: NCI In Vivo Anticancer Drug Screen. Data for tumor model P388 Leukemia (intraperitoneal) in B6D2F1 (BDF1) mice
Conditions: endpoint: median survival time, higher = longer survival
Procedure, shortened: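 In tumour-bearing mice, survival after compound treatment is set against the vehicle group and given as a quotient.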

[1] = dose: 50.0 mg/kg/injection, schedule: Q01DX009 (ip), vehicle: saline
[2] = dose: 50.0 mg/kg/injection, schedule: Q01DX009 (ip), vehicle: saline with Tween-80
[3] = dose: 100.0 mg/kg/injection, schedule: Q01DX009 (ip), vehicle: saline with Tween-80
[4] = dose: 200.0 mg/kg/injection, schedule: Q01DX009 (ip), vehicle: saline with Tween-80
[5] = dose: 10.0 mg/kg/injection, schedule: Q01DX009 (ip), vehicle: Klucel (hydroxypropylcellulose) (HPC)
[6] = dose: 20.0 mg/kg/injection, schedule: Q01DX009 (ip), vehicle: Klucel (hydroxypropylcellulose) (HPC)
[7] = dose: 40.0 mg/kg/injection, schedule: Q01DX009 (ip), vehicle: Klucel (hydroxypropylcellulose) (HPC)
[8] = dose: 100.0 mg/kg/injection, schedule: Q04DX003 (ip), vehicle: Klucel (hydroxypropylcellulose) (HPC)
[9] = dose: 100.0 mg/kg/injection, schedule: Q04DX003 (ip), vehicle: saline with Tween-80
[10] = dose: 200.0 mg/kg/injection, schedule: Q04DX003 (ip), vehicle: saline with Tween-80
[11] = dose: 50.0 mg/kg/injection, schedule: Q04DX003 (ip), vehicle: saline with Tween-80

## O=C(CCCCC(=O)Nc1ccc(C(=O)Nc2cc(C3=NCCN3)cc(C3=NCCN3)c2)cc1)Nc1ccc(C(=O)Nc2cc(C3=NCCN3)cc(C3=NCCN3)c2)cc1
dose: 66.0 mg/kg/injection, schedule: Q01DX009 (ip), vehicle: saline
  T/C: 150 % of control
dose: 150.0 mg/kg/injection, schedule: Q01DX009 (ip), vehicle: saline
  T/C: 150 % of control
dose: 150.0 mg/kg/injection, schedule: Q04DX003 (ip), vehicle: saline
  T/C: 154 % of control
dose: 200.0 mg/kg/injection, schedule: Q04DX003 (ip), vehicle: saline
  T/C: 150 % of control

## COc1cc(C(=O)N(C)C)cc(OC)c1OC
dose: 25.0 mg/kg/injection, schedule: Q01DX009 (ip), vehicle: saline
  T/C: 112 % of control
[1]
  T/C: 98 % of control
dose: 100.0 mg/kg/injection, schedule: Q01DX009 (ip), vehicle: saline
  T/C: 98 % of control
dose: 200.0 mg/kg/injection, schedule: Q01DX009 (ip), vehicle: saline
  T/C: 101 % of control

## NC1=NS(=O)(=O)N=C(N)C1=NNc1ccccc1
[2]
  T/C: 92 % of control
[3]
  T/C: 99 % of control
[4]
  T/C: 103 % of control

## CC(C)(C)OC(=O)NCCCCC(NC(=O)CNC(=O)C(CSC(c1ccccc1)(c1ccccc1)c1ccccc1)NC(=O)OC(C)(C)C)C(=O)O (stereo not given) (Boc-Cys(Trt)-Gly-Lys(Boc)-OH; configuration not given here)
dose: 25.0 mg/kg/injection, schedule: Q04DX003 (ip), vehicle: saline
  T/C: 100 % of control
dose: 50.0 mg/kg/injection, schedule: Q04DX003 (ip), vehicle: saline
  T/C: 104 % of control
dose: 100.0 mg/kg/injection, schedule: Q04DX003 (ip), vehicle: saline
  T/C: 104 % of control

## CCCCCCCCCCCCOP(N)(=O)OCCCCCCCCCCCC
[5]
  T/C: 103 % of control
[6]
  T/C: 106 % of control
[7]
  T/C: 106 % of control
[2]
  T/C: 109 % of control
[3]
  T/C: 113 % of control
[8]
  T/C: 105 % of control
[9]
  T/C: 109 % of control
dose: 200.0 mg/kg/injection, schedule: Q04DX003 (ip), vehicle: Klucel (hydroxypropylcellulose) (HPC)
  T/C: 97 % of control
[10]
  T/C: 109 % of control
dose: 400.0 mg/kg/injection, schedule: Q04DX003 (ip), vehicle: Klucel (hydroxypropylcellulose) (HPC)
  T/C: 121 % of control

## CCC[n+]1ccc(/C=N\NC(N)=S)c2ccccc21
dose: 25.0 mg/kg/injection, schedule: Q01DX009 (ip), vehicle: saline with Tween-80
  T/C: 94 % of control
[2]
  T/C: 103 % of control
[3]
  T/C: 122 % of control
[4]
  T/C: 122 % of control

## CSc1cc(C)c(O)c(C)c1
dose: 50.0 mg/kg/injection, schedule: Q01DX009 (ip), vehicle: other
  T/C: 104 % of control
dose: 100.0 mg/kg/injection, schedule: Q01DX009 (ip), vehicle: other
  T/C: 104 % of control
dose: 200.0 mg/kg/injection, schedule: Q01DX009 (ip), vehicle: other
  T/C: 104 % of control

## O=[N+]([O-])c1cc(S(=O)(=O)OCC2CO2)ccc1Cl (stereo not given)
dose: 6.25 mg/kg/injection, schedule: Q01DX009 (ip), vehicle: Klucel (hydroxypropylcellulose) (HPC)
  T/C: 100 % of control
dose: 12.0 mg/kg/injection, schedule: Q04DX003 (ip), vehicle: Klucel (hydroxypropylcellulose) (HPC)
  T/C: 95 % of control
dose: 12.5 mg/kg/injection, schedule: Q01DX009 (ip), vehicle: Klucel (hydroxypropylcellulose) (HPC)
  T/C: 105 % of control
dose: 25.0 mg/kg/injection, schedule: Q01DX009 (ip), vehicle: Klucel (hydroxypropylcellulose) (HPC)
  T/C: 120 % of control
[8]
  T/C: 108 % of control

## S=c1[nH]nc2n1NC(c1ccoc1)=NN2
dose: 25.0 mg/kg/injection, schedule: Q04DX003 (ip), vehicle: saline with Tween-80
  T/C: 122 % of control
[11]
  T/C: 100 % of control
[9]
  T/C: 113 % of control

## CC(=O)OC1C=CCC23C(=O)C=CC(=O)C12C(=O)c1ccccc1C3=O (stereo not given)
dose: 1.56 mg/kg/injection, schedule: Q01DX009 (ip), vehicle: saline
  T/C: 102 % of control
dose: 3.12 mg/kg/injection, schedule: Q01DX009 (ip), vehicle: saline
  T/C: 93 % of control
dose: 6.25 mg/kg/injection, schedule: Q01DX009 (ip), vehicle: saline
  T/C: 95 % of control
dose: 12.5 mg/kg/injection, schedule: Q01DX009 (ip), vehicle: saline
  T/C: 95 % of control
[1]
  T/C: 107 % of control

## CC(=O)OC1CCC2(C)C(CCC3(C)C2CCC2C4C5OC(=O)C4(CCC5(C)C)CCC23C)C1(C)C (stereo not given)
[5]
  T/C: 105 % of control
[6]
  T/C: 114 % of control
[7]
  T/C: 110 % of control

## COc1cc(/C=N\NC(C)=O)cc(OC)c1OC
[11]
  T/C: 100 % of control
[9]
  T/C: 90 % of control
[10]
  T/C: 90 % of control
